Source: the NIST ThermoML archive (doi:10.1016/j.jct.2005.06.015)

Experiments:
[1] = refractive index (Na D-line) (dimensionless); settings: 101.33 kPa, Liquid, Standard Abbe refractometry
[2] = 101 kPa, Liquid
[3] = xn = mol fraction of the nth substance listed; settings: 101 kPa, Liquid
[4] = refractive index (Na D-line) (dimensionless); xn = mol fraction of the nth substance listed; settings: 101 kPa, Liquid, Standard Abbe refractometry

CCCCCCO [hexan-1-ol]
Settings	mass density, [2] [kg/m3]	refractive index, [1]
293.15 K	818.72	1.41807
303.15 K	811.73	1.41423

ClC(Cl)C(Cl)Cl [1,1,2,2-tetrachloroethane] + CCCCCCCCO
Settings	mass density, [3] [kg/m3]	refractive index, [4]
293.15 K, x1 = 0.1028	879.91	1.43403
293.15 K, x1 = 0.1967	933.27	1.43826
293.15 K, x1 = 0.2997	995.8	1.44321
293.15 K, x1 = 0.4005	1061.47	1.44845
293.15 K, x1 = 0.501	1132.1	1.45416
293.15 K, x1 = 0.6	1207.5	1.46034
293.15 K, x1 = 0.6999	1290.57	1.46723
293.15 K, x1 = 0.7998	1381.66	1.47492
293.15 K, x1 = 0.9007	1483.42	1.48379
293.15 K, x1 = 1	1594.27	1.49387
303.15 K, x1 = 0.1028	872.01	1.43011
303.15 K, x1 = 0.1967	924.42	1.43419
303.15 K, x1 = 0.2997	985.92	1.43892
303.15 K, x1 = 0.4005	1050.64	1.44404
303.15 K, x1 = 0.501	1120.29	1.44968
303.15 K, x1 = 0.6	1194.6	1.45579
303.15 K, x1 = 0.6999	1276.31	1.46262
303.15 K, x1 = 0.7998	1365.71	1.47026
303.15 K, x1 = 0.9007	1465.56	1.47898
303.15 K, x1 = 1	1574.85	1.48887

CCCCCCCCO [octan-1-ol] + ClC(Cl)C(Cl)Cl
x2 = 0
Settings	mass density, [3] [kg/m3]	refractive index, [4]
293.15 K	825	1.42941
303.15 K	818.09	1.42563

ClC(Cl)C(Cl)Cl [1,1,2,2-tetrachloroethane]
Settings	mass density, [2] [kg/m3]	refractive index, [1]
293.15 K	1594.27	1.49387
303.15 K	1574.85	1.48887

CCCCCCCO [heptan-1-ol]
Settings	mass density, [2] [kg/m3]	refractive index, [1]
293.15 K	822.14	1.42397
303.15 K	815.41	1.42047

CCCCCCO [hexan-1-ol] + ClC(Cl)C(Cl)Cl
x2 = 0
Settings	mass density, [3] [kg/m3]	refractive index, [4]
293.15 K	818.72	1.41807
303.15 K	811.73	1.41423

CCCCCO [pentan-1-ol]
Settings	mass density, [2] [kg/m3]	refractive index, [1]
293.15 K	814.72	1.40976
303.15 K	807.6	1.40592

CCCCCO [pentan-1-ol] + ClC(Cl)C(Cl)Cl
x2 = 0
Settings	mass density, [3] [kg/m3]	refractive index, [4]
293.15 K	814.72	1.40976
303.15 K	807.6	1.40592

ClC(Cl)C(Cl)Cl [1,1,2,2-tetrachloroethane] + CCCCCCO
Settings	mass density, [3] [kg/m3]	refractive index, [4]
293.15 K, x1 = 0.1003	886.07	1.4247
293.15 K, x1 = 0.2011	955.51	1.43135
293.15 K, x1 = 0.3006	1025.9	1.438
293.15 K, x1 = 0.4004	1098.46	1.44486
293.15 K, x1 = 0.5	1173.27	1.45201
293.15 K, x1 = 0.6009	1251.57	1.45957
293.15 K, x1 = 0.7002	1331.64	1.46735
293.15 K, x1 = 0.8004	1415.64	1.47556
293.15 K, x1 = 0.9011	1503.8	1.48444
293.15 K, x1 = 1	1594.27	1.49387
303.15 K, x1 = 0.1003	877.89	1.42076
303.15 K, x1 = 0.2011	946.24	1.42723
303.15 K, x1 = 0.3006	1015.59	1.43378
303.15 K, x1 = 0.4004	1087.1	1.4405
303.15 K, x1 = 0.5	1160.79	1.4475
303.15 K, x1 = 0.6009	1237.85	1.45495
303.15 K, x1 = 0.7002	1316.58	1.46264
303.15 K, x1 = 0.8004	1399.12	1.47082
303.15 K, x1 = 0.9011	1485.78	1.4796
303.15 K, x1 = 1	1574.85	1.48887

ClC(Cl)C(Cl)Cl [1,1,2,2-tetrachloroethane] + CCCCCO
Settings	mass density, [3] [kg/m3]	refractive index, [4]
293.15 K, x1 = 0.1015	892.95	1.41801
293.15 K, x1 = 0.2006	969.17	1.42587
293.15 K, x1 = 0.3019	1046.97	1.43392
293.15 K, x1 = 0.4001	1122.53	1.44184
293.15 K, x1 = 0.5005	1199.96	1.45
293.15 K, x1 = 0.5995	1276.74	1.45825
293.15 K, x1 = 0.7005	1355.55	1.46691
293.15 K, x1 = 0.8008	1434.56	1.4757
293.15 K, x1 = 0.9001	1513.69	1.48463
293.15 K, x1 = 1	1594.27	1.49387
303.15 K, x1 = 0.1015	884.5	1.41395
303.15 K, x1 = 0.2006	959.53	1.42166
303.15 K, x1 = 0.3019	1036.17	1.42959
303.15 K, x1 = 0.4001	1110.64	1.43735
303.15 K, x1 = 0.5005	1186.94	1.44547
303.15 K, x1 = 0.5995	1262.57	1.45363
303.15 K, x1 = 0.7005	1340.1	1.46218
303.15 K, x1 = 0.8008	1417.76	1.47093
303.15 K, x1 = 0.9001	1495.54	1.47979
303.15 K, x1 = 1	1574.85	1.48887

CCCCCCCCO [octan-1-ol]
Settings	mass density, [2] [kg/m3]	refractive index, [1]
293.15 K	825	1.42941
303.15 K	818.09	1.42563

CCCCCCCCCCO [decan-1-ol]
Settings	mass density, [2] [kg/m3]	refractive index, [1]
293.15 K	829.84	1.43694
303.15 K	822.83	1.43364

ClC(Cl)C(Cl)Cl [1,1,2,2-tetrachloroethane] + CCCCCCCCCCO
Settings	mass density, [3] [kg/m3]	refractive index, [4]
293.15 K, x1 = 0.1023	874.88	1.44019
293.15 K, x1 = 0.2004	922	1.44342
293.15 K, x1 = 0.3006	974.95	1.44704
293.15 K, x1 = 0.4005	1033.5	1.45108
293.15 K, x1 = 0.5009	1099.29	1.45575
293.15 K, x1 = 0.6001	1172.37	1.46097
293.15 K, x1 = 0.6999	1255.81	1.46711
293.15 K, x1 = 0.8	1351.62	1.47434
293.15 K, x1 = 0.901	1464.04	1.48303
293.15 K, x1 = 1	1594.27	1.49387
303.15 K, x1 = 0.1023	867.03	1.43656
303.15 K, x1 = 0.2004	913.42	1.43969
303.15 K, x1 = 0.3006	965.57	1.44313
303.15 K, x1 = 0.4005	1023.2	1.44706
303.15 K, x1 = 0.5009	1087.89	1.45152
303.15 K, x1 = 0.6001	1159.72	1.45665
303.15 K, x1 = 0.6999	1241.75	1.46263
303.15 K, x1 = 0.8	1336.02	1.46974
303.15 K, x1 = 0.901	1446.7	1.47826
303.15 K, x1 = 1	1574.85	1.48887

ClC(Cl)C(Cl)Cl [1,1,2,2-tetrachloroethane] + CCCCCCCO
Settings	mass density, [3] [kg/m3]	refractive index, [4]
293.15 K, x1 = 0.1022	883.03	1.42952
293.15 K, x1 = 0.1995	943.76	1.43494
293.15 K, x1 = 0.3002	1009.72	1.4406
293.15 K, x1 = 0.4008	1079.02	1.44661
293.15 K, x1 = 0.5001	1151.23	1.45297
293.15 K, x1 = 0.599	1227.43	1.45976
293.15 K, x1 = 0.6996	1310.04	1.46717
293.15 K, x1 = 0.7999	1398.24	1.47525
293.15 K, x1 = 0.9015	1494.17	1.48421
293.15 K, x1 = 1	1594.27	1.49387
303.15 K, x1 = 0.1022	875.27	1.42581
303.15 K, x1 = 0.1995	934.97	1.43106
303.15 K, x1 = 0.3002	999.87	1.43653
303.15 K, x1 = 0.4008	1068.12	1.44244
303.15 K, x1 = 0.5001	1139.25	1.44861
303.15 K, x1 = 0.599	1214.28	1.45521
303.15 K, x1 = 0.6996	1295.52	1.46254
303.15 K, x1 = 0.7999	1382.11	1.4705
303.15 K, x1 = 0.9015	1476.3	1.47937
303.15 K, x1 = 1	1574.85	1.48887

CCCCCCCO [heptan-1-ol] + ClC(Cl)C(Cl)Cl
x2 = 0
Settings	mass density, [3] [kg/m3]	refractive index, [4]
293.15 K	822.14	1.42397
303.15 K	815.41	1.42047

CCCCCCCCCCO [decan-1-ol] + ClC(Cl)C(Cl)Cl
x2 = 0
Settings	mass density, [3] [kg/m3]	refractive index, [4]
293.15 K	829.84	1.43694
303.15 K	822.83	1.43364
